From publication PMC4066839 (MedChemComm, 2014)

Test system: C. neoformans
Assay: in vitro growth inhibition
Format: cell-based, Cryptococcus neoformans
Conditions: highest tested concentration 20 μg/mL; NA = not active

C. neoformans IC50 (concentration that affords 50% inhibition of growth): inactive
SMILES: COc1ccc(-c2nc(C[C@H](N)C(=O)N[C@@H](CCCNC(=N)N)C(=O)NCc3ccccc3)c[nH]2)cc1 [Peptide 5d]
